From ChEMBL document CHEMBL1201862, “PubChem BioAssay data set” (2004) come the findings set out here.

Each structure is given as a SMILES string. Several values for one entry are separate records, joined by “and”; a condition that tells them apart may be missing. Equal values may be shown once. Activity calls are given as the source filed them. Where only a bound is given, the exact number is not on record here.

Some targets named below: Cytochrome P450 3A4 (Homo sapiens, UniProt P08684); Cytochrome P450 2C9 (Homo sapiens, UniProt P11712); Cytochrome P450 2D6 (Homo sapiens, UniProt P10635).
Assay [1] has as its target T1, Replicative DNA helicase DnaB (Mycobacterium tuberculosis, UniProt P9WMR3).
T1 sequence (P9WMR3 whole entry): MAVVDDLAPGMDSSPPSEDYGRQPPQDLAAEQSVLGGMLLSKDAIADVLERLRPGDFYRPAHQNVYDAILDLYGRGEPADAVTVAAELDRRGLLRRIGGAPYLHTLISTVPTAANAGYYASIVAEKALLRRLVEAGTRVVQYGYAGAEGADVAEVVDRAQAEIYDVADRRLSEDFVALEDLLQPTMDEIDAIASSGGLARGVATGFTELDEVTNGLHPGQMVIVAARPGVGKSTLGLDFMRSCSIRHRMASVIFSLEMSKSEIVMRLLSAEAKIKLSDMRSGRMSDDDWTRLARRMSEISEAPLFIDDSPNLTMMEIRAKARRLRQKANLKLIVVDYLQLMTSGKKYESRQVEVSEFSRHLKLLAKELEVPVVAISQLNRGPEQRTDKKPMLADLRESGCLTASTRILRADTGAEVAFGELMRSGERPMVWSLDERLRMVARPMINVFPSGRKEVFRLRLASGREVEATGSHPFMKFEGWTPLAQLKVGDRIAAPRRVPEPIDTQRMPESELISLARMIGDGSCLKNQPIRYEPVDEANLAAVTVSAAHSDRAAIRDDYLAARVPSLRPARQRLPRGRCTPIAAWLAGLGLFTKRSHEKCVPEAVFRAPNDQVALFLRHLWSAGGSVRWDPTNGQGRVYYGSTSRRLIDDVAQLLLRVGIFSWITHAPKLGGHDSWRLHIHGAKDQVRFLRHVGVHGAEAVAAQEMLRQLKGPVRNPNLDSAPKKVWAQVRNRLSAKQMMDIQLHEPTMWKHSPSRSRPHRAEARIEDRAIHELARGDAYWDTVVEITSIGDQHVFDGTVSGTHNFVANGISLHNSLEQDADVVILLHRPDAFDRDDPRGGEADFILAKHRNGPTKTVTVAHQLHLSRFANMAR
Put plainly: DnaB intein splicing inhibitors, dose response, biochemical, cell-free fluorescence (AID 449749). The assay is classed as functional.

The target of the next assay is T2, Protein RecA (Mycobacterium tuberculosis, UniProt P9WHJ3).
T2 sequence (P9WHJ3 whole entry): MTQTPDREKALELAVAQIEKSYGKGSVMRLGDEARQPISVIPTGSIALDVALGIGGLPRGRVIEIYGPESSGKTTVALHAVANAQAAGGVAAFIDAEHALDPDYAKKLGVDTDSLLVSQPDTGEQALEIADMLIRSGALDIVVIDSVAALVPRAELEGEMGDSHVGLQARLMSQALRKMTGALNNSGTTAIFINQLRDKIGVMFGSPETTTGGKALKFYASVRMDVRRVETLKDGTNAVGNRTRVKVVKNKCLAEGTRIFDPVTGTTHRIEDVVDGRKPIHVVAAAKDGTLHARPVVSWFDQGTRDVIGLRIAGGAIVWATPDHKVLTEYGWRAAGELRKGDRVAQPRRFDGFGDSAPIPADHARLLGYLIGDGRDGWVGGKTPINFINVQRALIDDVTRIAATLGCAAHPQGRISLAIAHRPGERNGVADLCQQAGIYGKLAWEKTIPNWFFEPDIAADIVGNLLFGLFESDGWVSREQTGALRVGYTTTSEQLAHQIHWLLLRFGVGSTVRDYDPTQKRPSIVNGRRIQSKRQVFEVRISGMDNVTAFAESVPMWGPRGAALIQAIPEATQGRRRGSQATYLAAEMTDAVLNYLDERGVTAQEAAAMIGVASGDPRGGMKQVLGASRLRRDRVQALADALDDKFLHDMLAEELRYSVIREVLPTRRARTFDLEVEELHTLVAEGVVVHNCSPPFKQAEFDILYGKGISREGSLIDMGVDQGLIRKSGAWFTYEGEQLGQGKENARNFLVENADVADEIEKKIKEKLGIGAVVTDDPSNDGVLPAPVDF
Put plainly: Fluorescence Cell-Free Homogeneous Dose Retest to Identify Inhibitors of RecA-Intein Splicing Activity. [Related pubchem assays (depositor defined):AID2097, AID2223, AID489010, AID492950]. The assay is classed as functional.

Another assay addresses T3, Cytochrome P450 1A2 (Homo sapiens, UniProt P05177).
T3 sequence (P05177 whole entry): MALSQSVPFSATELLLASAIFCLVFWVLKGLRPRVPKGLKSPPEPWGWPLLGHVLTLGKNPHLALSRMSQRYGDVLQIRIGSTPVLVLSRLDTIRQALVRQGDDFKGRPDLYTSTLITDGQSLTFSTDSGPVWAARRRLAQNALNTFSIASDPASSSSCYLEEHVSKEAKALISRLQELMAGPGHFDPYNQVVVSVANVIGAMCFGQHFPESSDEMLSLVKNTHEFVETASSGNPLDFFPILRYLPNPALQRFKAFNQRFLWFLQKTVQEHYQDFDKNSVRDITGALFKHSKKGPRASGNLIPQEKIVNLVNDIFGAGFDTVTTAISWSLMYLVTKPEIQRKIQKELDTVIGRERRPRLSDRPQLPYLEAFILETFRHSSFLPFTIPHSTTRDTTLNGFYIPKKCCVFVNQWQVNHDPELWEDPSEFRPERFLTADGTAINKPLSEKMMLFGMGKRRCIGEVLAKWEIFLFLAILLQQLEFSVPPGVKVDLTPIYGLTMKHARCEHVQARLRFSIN

The nature of assay [2]: Luminescence Cell-Based Dose Retest to Confirm Inhibitors of Cancer Stem Cells. [Related pubchem assays (depositor defined):AID2717, AID2721]. The class given is functional. The settings on record: Homo sapiens.

Chain of Cytochrome P450 3A4 (P08684 whole entry): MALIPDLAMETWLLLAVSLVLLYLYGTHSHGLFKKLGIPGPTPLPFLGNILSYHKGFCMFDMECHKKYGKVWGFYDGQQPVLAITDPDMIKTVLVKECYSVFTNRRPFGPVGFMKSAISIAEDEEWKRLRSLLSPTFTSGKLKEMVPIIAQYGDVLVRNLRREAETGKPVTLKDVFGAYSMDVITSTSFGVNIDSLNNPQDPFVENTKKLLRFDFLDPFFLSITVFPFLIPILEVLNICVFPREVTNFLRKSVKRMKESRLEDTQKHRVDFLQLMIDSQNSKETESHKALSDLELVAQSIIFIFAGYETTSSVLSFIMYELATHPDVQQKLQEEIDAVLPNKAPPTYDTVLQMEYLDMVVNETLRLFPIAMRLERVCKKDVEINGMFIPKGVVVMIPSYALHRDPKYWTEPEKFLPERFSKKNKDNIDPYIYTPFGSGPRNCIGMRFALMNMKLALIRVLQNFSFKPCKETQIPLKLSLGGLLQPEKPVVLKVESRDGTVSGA
Chain of Cytochrome P450 2D6 (P10635 whole entry): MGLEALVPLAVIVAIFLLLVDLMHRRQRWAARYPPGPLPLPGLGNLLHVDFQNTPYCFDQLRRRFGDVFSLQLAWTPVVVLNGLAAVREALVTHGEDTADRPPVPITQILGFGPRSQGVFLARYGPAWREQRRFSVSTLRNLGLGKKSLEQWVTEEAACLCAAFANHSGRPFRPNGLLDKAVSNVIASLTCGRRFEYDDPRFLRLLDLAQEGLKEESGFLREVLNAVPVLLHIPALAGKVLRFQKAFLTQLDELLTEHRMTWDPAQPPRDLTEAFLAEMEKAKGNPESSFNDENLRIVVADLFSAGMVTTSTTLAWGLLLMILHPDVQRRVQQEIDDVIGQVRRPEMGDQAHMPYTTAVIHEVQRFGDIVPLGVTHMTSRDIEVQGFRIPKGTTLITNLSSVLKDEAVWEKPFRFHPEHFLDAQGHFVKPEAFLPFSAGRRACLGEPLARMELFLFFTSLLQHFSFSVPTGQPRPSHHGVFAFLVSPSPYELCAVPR
Chain of Cytochrome P450 2C9 (P11712 whole entry): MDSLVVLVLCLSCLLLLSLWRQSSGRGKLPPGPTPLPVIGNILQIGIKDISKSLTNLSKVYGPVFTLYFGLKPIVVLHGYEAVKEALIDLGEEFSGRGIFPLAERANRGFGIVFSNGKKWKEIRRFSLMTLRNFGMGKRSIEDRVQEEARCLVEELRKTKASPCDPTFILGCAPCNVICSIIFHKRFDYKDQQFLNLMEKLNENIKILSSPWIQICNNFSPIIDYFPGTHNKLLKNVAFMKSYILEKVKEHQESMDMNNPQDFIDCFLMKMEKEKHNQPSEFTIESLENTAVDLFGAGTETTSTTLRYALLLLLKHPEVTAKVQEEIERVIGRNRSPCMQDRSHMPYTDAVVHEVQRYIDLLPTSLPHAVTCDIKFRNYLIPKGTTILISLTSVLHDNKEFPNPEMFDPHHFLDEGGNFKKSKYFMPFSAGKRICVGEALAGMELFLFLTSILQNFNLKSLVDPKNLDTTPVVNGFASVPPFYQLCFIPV

With `O=S(=O)(c1ccc(F)cc1)N1CCCC(CO)C1` (stereo not given), the AC50 at Cytochrome P450 3A4 was 25.1 µM (inconclusive).
Consider `Cc1n[nH]c2c1C(c1cccc(OC(=O)N3CCOCC3)c1)C(C#N)=C(N)O2` (stereo not given), for which, in assay [1], the AC50 is 31.2 µM (active). The EC50 on Protein RecA was 7.44 µM (active).
In the case of `COc1ccc(Oc2ncc3nc(-c4cccc(C#N)c4)c(=O)n(CCC#N)c3n2)cc1`, the AC50 at Cytochrome P450 1A2 and on Cytochrome P450 2C9 was 25.1 µM (inconclusive) throughout.
As to `CC(=O)C1=C(O)[C@@H]2[C@@H]3c4c[nH]c5cccc(c45)C[C@@H]3C(C)(C)N2C1=O`, the results for the AC50 on Cytochrome P450 3A4, at Cytochrome P450 2D6 and on Cytochrome P450 1A2 were 10 µM (inconclusive), 39.8 µM (inconclusive) and 12.6 µM (inconclusive), respectively.
Turning to `COc1ccc(Oc2ncc3nc(CCc4ccccc4)c(=O)n(C)c3n2)cc1`, the AC50 at Cytochrome P450 3A4 was 7.94 µM (inconclusive).
With `CC12CC(NC(=O)N1c1cccc(C(=O)NCc3ccccc3)c1)c1ccccc1O2` (stereo not given), the figures for the AC50 on Cytochrome P450 2D6 and at Cytochrome P450 1A2 were 28.2 µM (inconclusive) and 25.1 µM (inconclusive), respectively.
With `COc1ccc(C2C(C#N)=C(N)Oc3[nH]nc(C)c32)cc1Cn1nnc2ccccc21` (stereo not given), the AC50 in assay [1] was 7.76 µM (active). The EC50 on Protein RecA is 3.87 µM (active).
As for `CCC(CC)C(=O)Nc1cccc(/C(C)=N/NC(=O)c2c(Br)cnn2C)c1`, the half-maximal activity concentration (AC50) at Cytochrome P450 1A2 is 12.6 µM (inconclusive); on Cytochrome P450 2C9, 8.91 µM (inconclusive).
As for `COc1ccc(CNC(=O)Cc2csc(Nc3nc(S)nc4ccccc34)n2)cc1`, the AC50 on Cytochrome P450 2D6 was 0.447 µM (inconclusive).
Take `Cc1onc(-c2c(Cl)cccc2Cl)c1C(=O)Nc1ccc2c(c1)OCO2`: the AC50 at Cytochrome P450 3A4 was 1 µM (inconclusive).
For the compound `CCN(CC)C1=NC(=[N+](CC)CC)c2ccccc21`, the AC50 on Cytochrome P450 2D6 is 14.1 µM (inconclusive).
On to `Cc1n[nH]c2c1C(c1ccsc1C)C(C#N)=C(N)O2` (stereo not given), for which the AC50 in assay [1] is 10.1 µM (active). Moreover, the EC50 at Protein RecA is 3.77 µM (active).
As to `O=C1Nc2ccccc2C1=Nc1sc2c(c1C(=O)NCCc1ccccc1)CCCC2`, the AC50 at Cytochrome P450 2D6 is 4.47 µM (inconclusive).
Turning to `C[C@H](C(=O)c1ccccc1)[C@@H](c1ccccc1)N1CCOCC1`, on Cytochrome P450 3A4, the AC50 was 0.501 µM (inconclusive).
For the compound `Cc1nn(Cc2ccc([N+](=O)[O-])cc2)c(=O)n1-c1cccc(F)c1`, the concentration at half-maximal activity (AC50) is 25.1 µM (inconclusive) on Cytochrome P450 2D6 and 17.8 µM (inconclusive) on Cytochrome P450 1A2.
For the compound `Cc1nn(-c2ccccc2)c2c1C(c1ccc(F)cc1)C(C#N)=C(N)O2` (stereo not given), the AC50 in assay [1] was 3.55 µM (active). Also, the EC50 at Protein RecA is 2.93 µM (active).
On to `CCOC(=O)CN1C(=O)N[C@@H](c2cccc(C(F)(F)F)c2)C(C(C)=O)=C1C`, for which the AC50 in assay [1] was > 380 µM (inactive). For the same compound, the EC50 on Protein RecA was > 380 µM (inactive).
With `Cc1noc(C)c1-c1ccc2ncnc(NCCN3CCOCC3)c2c1`, the AC50 at Cytochrome P450 2D6 was 31.6 µM (inconclusive).
For `NC(=O)CNC(=O)[C@@H]1CC2(CC(c3cccc([N+](=O)[O-])c3)=NO2)CN1C(=O)c1ccccc1` (stereo not given in full), the AC50 is 31.6 µM (inconclusive) on Cytochrome P450 2D6 and 0.708 µM (inconclusive) on Cytochrome P450 2C9.
On to `COc1ccccc1-c1cc(NCc2cccs2)ncn1`, for which the AC50 on Cytochrome P450 3A4 was 31.6 µM (inconclusive).
As for `N#Cc1cccc(-c2ccc3ncnc(NCc4ccccc4)c3c2)c1`, the AC50 on Cytochrome P450 3A4 was 15.8 µM (inconclusive); at Cytochrome P450 2D6 it was 10 µM (inconclusive); at Cytochrome P450 2C9 it was 0.631 µM (inconclusive).
`N=C(NOC(=O)Cc1ccc(Cl)cc1)c1cccnc1`: the values for the AC50 at Cytochrome P450 2D6 and on Cytochrome P450 2C9 were 6.31 µM (inconclusive) and 12.6 µM (inconclusive), respectively.
Take `CCc1cc2c(c(CC)n1)CCC(=O)N2Cc1ccc(-c2ccccc2-c2nnn[nH]2)cc1`: the AC50 at Cytochrome P450 3A4 is 20 µM (inconclusive); on Cytochrome P450 2D6 it was 10 µM (inconclusive); on Cytochrome P450 2C9 it was 25.1 µM (inconclusive).
Turning to `Nc1nc(Cl)cc(N2CCOCC2)n1`, the figures for the AC50 on Cytochrome P450 2D6 and at Cytochrome P450 1A2 were 39.8 µM (inconclusive) and 15.8 µM (inconclusive), respectively.
Regarding `CNc1ncncc1-c1ccccc1C`, the values for the AC50 at Cytochrome P450 2D6 and on Cytochrome P450 1A2 were 31.6 µM (inconclusive) and 12.6 µM (inconclusive), respectively.
Consider `CN(C)CCC[C@@]1(c2ccc(F)cc2)OCc2cc(C#N)ccc21` [ESCITALOPRAM], for which the AC50 at Cytochrome P450 2D6 is 39.8 µM (inconclusive) and 12.6 µM (inconclusive).
With `COc1ccc(OC)c(N2C(=O)C(Cl)=C(N3CCCCC3)C2=O)c1`, in assay [1], the AC50 was 11.8 µM (active). In addition, the EC50 at Protein RecA was 4.67 µM (active).
For `CCN(CC)S(=O)(=O)c1ccc(OC)c(NC(=O)CSc2ccccc2)c1`, the concentration at half-maximal activity (AC50) at Cytochrome P450 3A4 is 31.6 µM (inconclusive).
Regarding `O=C(CCl)Nc1ccc(N=Nc2ccccc2)cc1`, the AC50 in assay [1] is 6.81 µM (active). Further, on Protein RecA, the EC50 was 2.18 µM (active).
For the compound `O=[N+]([O-])c1ccc(N2CCN(Cc3ccccc3)CC2)c(S(=O)(=O)N2CCOCC2)c1`, at Cytochrome P450 3A4, the concentration at half-maximal activity (AC50) is 12.6 µM (inconclusive).
Take `COC(=O)C1C(=O)C2=C(CC1C)NC(=O)CC2c1cccc(C)c1` (stereo not given): the figures for the AC50 (in assay [2]; on Cytochrome P450 2C9) were > 195 µM (inactive) and 15.8 µM (inconclusive), respectively.
For `CCOc1c2ccc(C(=O)NCc3ccc4c(c3)OCO4)cc2nn1CC`, the results for the AC50 at Cytochrome P450 2D6 and at Cytochrome P450 1A2 were 15.8 µM (inconclusive) and 8.91 µM (inconclusive), respectively.
Take `COc1ccc2c(c1)c(=O)oc1c(C)c(OCC(=O)N3CCc4ccccc4C3)ccc12`: on Cytochrome P450 3A4, the AC50 was 3.16 µM (inconclusive).
Consider `Cc1ccc(-n2nnc3c(SCC(=O)NCC4CCCO4)ncnc32)cc1` (stereo not given), for which the AC50 in assay [1] is 4.72 µM (active). Besides, the EC50 at Protein RecA was 4.23 µM (active).
For `N#CCCn1[nH]c(-c2ccccc2)cc1=O` the same measures were 5.47 µM (active) and 3.32 µM (active).

The term AC50 denotes the concentration giving half of the maximal activity seen. The EC50 is the concentration giving half of the maximal effect.
